Test [1] concerns HUT cancer cell line. Nature of the test: Cell inhibition assay (SRB cell viability), HUT. The class given is cell-based. The conditions noted are these: HUT cells, 72 h, IC50 range. The gist of the method: (§1)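 Log-phase Hela, U937 and HUT cells were seeded at 1000 cells/well, grown 24 h, then exposed to compound (20 uM final) for 72 h. Viability was read by sulphorhodamine B staining and expressed as % inhibition relative to DMSO control. IC50 values came from sigmoidal variable-slope fits of eight concentrations.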

Test [2] deals with T1, histone deacetylase activity (HeLa nuclear extract).
T1 construct: Histone deacetylase activity from crude nuclear extract derived from HeLa cells was used for screening
Nature of the test: HDAC fluorescent activity assay (Biomol Fluor de Lys), HeLa nuclear extract. The class given is biochemical. The conditions noted are these: Fluor de Lys substrate, IC50 range. The gist of the method:
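Crude HeLa nuclear extract (20 mM Hepes, 100 mM KCl, 0.2 mM EDTA, 0.5 mM DTT, 0.2 mM PMSF, 20% glycerol) incubated with acetyl-lysine Fluor de Lys substrate ± inhibitor; developer generates fluorophore. Background-subtracted % of vehicle control; IC50 from eight-point variable-slope sigmoidal fit.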

Test [3] deals with U937 cancer cell line. Nature of the test: Cell inhibition assay (SRB cell viability), U937. The class given is cell-based. The conditions noted are these: Homo sapiens, U-937, U937 cells, 72 h, IC50 range. The essentials:
as §1

Test [4] relates to Hela cancer cell line. In words: Cell inhibition assay (SRB cell viability), Hela. The conditions noted are these: Homo sapiens, HeLa, 72 h, Hela cells, IC50 range. Type of test: cell-based. The essentials: as §1

In the case of `CSCC[C@H](NCc1ccc(CNCc2ccc3cc(C(=O)NO)sc3c2)cc1)C(=O)OC1CCCC1` [Compound 110, (S)-2-(4-{[(2-Hydroxycarbamoyl-benzo[b]thiophen-6-ylmethyl)-amino]-methyl}-benzylamino)-4-methylsulfanyl-butyric acid cyclopentyl ester], the IC50 in test [1] is < 330 nM; in test [2], < 100 nM; in test [3], < 330 nM; in test [4] it was 330 to 3300 nM.

As to `O=C(NO)c1cc2ccc(CNCc3ccc(CN4CCC[C@H]4C(=O)OC4CCCC4)cc3)cc2s1` [Compound 111, (S)-1-(4-{[(2-Hydroxycarbamoyl-benzo[b]thiophen-6-ylmethyl)-amino]-methyl}-benzyl)-pyrrolidine-2-carboxylic acid cyclopentyl ester], the IC50 is < 330 nM in test [1], < 100 nM in test [2], < 330 nM in test [3] and < 330 nM in test [4].

For `CC(C)(C)SC[C@H](NCc1ccc(CNCc2ccc3cc(C(=O)NO)sc3c2)cc1)C(=O)OC1CCCC1` [Compound 113, (R)-3-tert-Butylsulfanyl-2-(4-{[(2-hydroxycarbamoyl-benzo[b]thiophen-6-ylmethyl)-amino]-methyl}-benzylamino)-propionic acid cyclopentyl ester], the IC50 in test [1] lay within 330 to 3300 nM; in test [2], 101 to 1000 nM; in test [3], 330 to 3300 nM; in test [4], 330 to 3300 nM.

In the case of `CC(C)(C)[C@H](NCc1ccc(CNCc2ccc3cc(C(=O)NO)sc3c2)cc1)C(=O)OC1CCCC1` [Compound 115, (S)-2-(4-{[(2-Hydroxycarbamoyl-benzo[b]thiophen-6-ylmethyl)-amino]-methyl}-benzylamino)-3,3-dimethyl-butyric acid cyclopentyl ester], the IC50 was in the range of 330 to 3300 nM in test [1], 101 to 1000 nM in test [2], 330 to 3300 nM in test [3] and 330 to 3300 nM in test [4].

For `O=C(NO)c1cc2ccc(CNCc3ccc(CN[C@H](C(=O)OC4CCCC4)C4CCCCC4)cc3)cc2s1` [Compound 116, (S)-Cyclohexyl-(4-{[(2-hydroxycarbamoyl-benzo[b]thiophen-6-ylmethyl)-amino]-methyl}-benzylamino)-acetic acid cyclopentyl ester], the IC50 in test [1] is > 3300 nM; in test [2] it was 101 to 1000 nM; in test [3], 330 to 3300 nM; in test [4] it was > 3300 nM.

On to `C[C@H](NCc1ccc(CNCc2ccc3cc(C(=O)NO)sc3c2)cc1)C(=O)OC1CCCC1` [Compound 118, (S)-2-(4-{[(2-Hydroxycarbamoyl-benzo[b]thiophen-6-ylmethyl)-amino]-methyl}-benzylamino)-propionic acid cyclopentyl ester], for which the IC50 in test [1] was < 330 nM; in test [2], < 100 nM; in test [3], < 330 nM; in test [4], < 330 nM.

Regarding `CC(C)C[C@H](NCc1ccc(CNCc2ccc3cc(C(=O)NO)sc3c2)cc1)C(=O)OC1CCCC1` [Compound 122], the IC50 is 330 to 3300 nM in test [1], < 100 nM in test [2], < 330 nM in test [3] and 330 to 3300 nM in test [4].

As to `O=C(NO)c1cc2ccc(CNCc3ccc(CN[C@H](C(=O)OC4CCCC4)c4ccccc4)cc3)cc2s1` [Compound 124, (S)-(4-{[(2-Hydroxycarbamoyl-benzo[b]thiophen-6-ylmethyl)-amino]-methyl}-benzylamino)-phenyl-acetic acid cyclopentyl ester], the IC50 was 330 to 3300 nM in test [1], 101 to 1000 nM in test [2], < 330 nM in test [3] and 330 to 3300 nM in test [4].

On to `CC(C)C[C@H](NCC1CCC(CNCc2ccc3cc(C(=O)NO)sc3c2)CC1)C(=O)OC1CCCC1` (stereo partly drawn) [Compound 128, (S)-2-[(4-{[(2-Hydroxycarbamoyl-benzo[b]thiophen-6-ylmethyl)-amino]-methyl}-cyclohexylmethyl)-amino]-4-methyl-pentanoic acid cyclopentylester], for which the IC50 in test [1] was < 330 nM; in test [2], 101 to 1000 nM; in test [3] it was < 330 nM; in test [4], 330 to 3300 nM.

With `O=C(NO)c1cc2ccc(CNc3cccc(CN[C@H](C(=O)OC4CCCC4)c4ccccc4)c3)cc2s1` [Compound 130, (S)-{3-[(2-Hydroxycarbamoyl-benzo[b]thiophen-6-ylmethyl)-amino]-benzyl-amino}-phenyl-acetic acid cyclopentyl ester], the IC50 in test [1] is > 3300 nM; in test [2] it was > 1000 nM; in test [3] it was 330 to 3300 nM; in test [4] it was > 3300 nM.

Consider `O=C(NO)c1cc2ccc(CNc3cccc(CN[C@H](C(=O)OC4CCCC4)C4CCCCC4)c3)cc2s1` [Compound 131, (S)-{3-[(2-Hydroxycarbamoyl-benzo[b]thiophen-6-ylmethyl)-amino]-benzylamino}-cyclohexyl-acetic acid cyclopentyl ester], for which the IC50 in test [1] is > 3300 nM; in test [2], > 1000 nM; in test [3], 330 to 3300 nM; in test [4] it was > 3300 nM.

Regarding `CC(C)(C)OC[C@H](NCc1cccc(NCc2ccc3cc(C(=O)NO)sc3c2)c1)C(=O)OC1CCCC1` [Compound 132, (S)-3-tert-Butoxy-2-{3-[(2-hydroxycarbamoyl-benzo[b]thiophen-6-ylmethyl)-amino]-benzylamino}-propionic acid cyclopentyl ester], the IC50 in test [1] is 330 to 3300 nM; in test [2], 101 to 1000 nM; in test [3], 330 to 3300 nM; in test [4], > 3300 nM.

Consider `CC(C)C[C@H](NCc1cccc(NCc2ccc3cc(C(=O)NO)sc3c2)c1)C(=O)OC1CCCC1` [Compound 133, (S)-2-{3-[(2-Hydroxycarbamoyl-benzo[b]thiophen-6-ylmethyl)-amino]-benzylamino}-4-methyl-pentanoic acid cyclopentyl ester], for which the IC50 in test [1] was > 3300 nM; in test [2], 101 to 1000 nM; in test [3], 330 to 3300 nM; in test [4] it was 330 to 3300 nM.

For the origin of these results see patent publication US9133104B2 (Chroma Therapeutics Ltd., priority 2005, dated 2015).
